Data as given in patent US20210144999A1, “COMPOSITIONS COMPRISING HYDROXYCINNAMIC ACID AND RELATED CONJUGATES, ANALOGUES AND DERIVATIVES, AND METHODS OF USE THEREOF” (YEDA RESEARCH AND DEVELOPMENT CO. LTD., priority 2017, published 2021).
Entries after “also recorded” stand apart in the source; their conditions may differ.

Legend:
[1] = system: pks operon (PpksC promoter); assay: pks expression, PpksC-lux luminescence reporter; format: cell-based, B. subtilis; details: library of 400 plant metabolites, growth-normalized RLU
Description: FIGS. 23A-23B: An ester of caffeic acid induces antibiotic production. (FIG. 23A) Scheme of a screen of plant metabolites for pks induction. (FIG. 23B) Growth-normalized RLU of PpksC-lux strain treated with a small molecule library representative as in A, compared with the treatment in root exudate.
(§1) pks expression analysis. pks expression in the presence of plant metabolites was analyzed as following: the luminescence intensity of cells harboring a PpksC-lux transcriptional promoter fusion was analyzed. Cells were grown to a mid-logarithmic phase, diluted 1:100 in 150 μl liquid MSgg medium, either with or without root exudate. Cells were grown in a 96-well microplate (Thermo Scientific, Roskilde, Denmark) with agitation at 30° C. for 16 h in a microplate reader (Synergy 2, BioTek, Winooski, Vt., USA) measuring luminescence intensity and the optical density at 600 nm (OD600) every 15 min.
A library of 400 plant metabolites was screened for pks induction using B. subtilis cells carrying the PpksC-lux construct (FIG. 23A).

[2] = system: pks operon (PKS promoter); assay: pks expression, amyE::Ppks-gfp fluorescence reporter; format: cell-based, B. subtilis
Description: FIGS. 3A:-3H Specialized host-derived metabolites increase PKS activity while B. subtilis biofilms increase plant Induced Systemic Resistance (ISR). (FIG. 3A) Quantification of pks expression (amyE::Ppks-gfp) in B. subtilis over time in response to different hydrophobicity fractions of plant root exudate. Expression was measured using fluorescent intensity of GFP fused to the PKS promoter. Color-coded curves indicate ascending methanol concentrations used for consecutive washings of root exudate from Silica-based bonded phase with strong hydrophobicity; darker curve indicates the first flow-through of the loaded root exudate from the silica cartridge. Orange curve indicate the pks expression kinetics without treatment. (FIG. 3B) Quantification of pks expression (amyE::Ppks-gfp) in B. subtilis over time in response to plant root metabolites. Expression was measured by fluorescent intensity of GFP fused to the PKS promotor. Color-coded curves indicate 5, 50,100 and 150 μM of the four metabolites: Methyl β-D-Glucopyranosid (upper left), Chromone (upper right), Chlorogenic acid (lower left) and Caffeic acid (lower right). Orange curve indicate the pks expression kinetics without treatment. (FIG. 3C) Fluorescence imaging of pks expression (amyE::Ppks-gfp) in a single cell resolution 5 h after B. subtilis was grown in MSgg (control) liquid culture supplemented with 150 μM of Chlorogenic acid and Caffeic acid. Images presented as over-layered channels of TL-phase and EGFP. Scale bar—[…]. […] Pathogenicity was measured in E. sativa seedlings whose roots were inoculated with B. subtilis, S. plymuthica and their combination in ratios of 1:1, 100:1 and 1:100. […]
Fluorescence microscopy. […] Cells were s visualized by fluorescence microscopy; Phase contrast and signal from Ppks-gfp (green) are shown. Fluorescent cell count and intensity levels were recorded for 10 fields in each treatment, at least 1000 cells were quantified for each treatment.

B. subtilis = assay: Planktonic growth (OD600) in liquid MSgg; format: cell-based; details: caffeic acid at indicated concentrations, 30° C.
Description: Planktonic growth of wild type grown at 30° C. with shaking in liquid MSgg medium without (untreated) or caffeic acid at indicated concentrations was monitored by measuring OD600in a microplate reader. Results are averages of four wells within one experiment and their standard deviations. A representative of three independent experiments is shown.
as §1

B. subtilis biofilms = assay: B. subtilis biofilm stability / maintenance in vitro; format: cell-based; details: for effect on beneficial biofilms (stability / maintenance), single agent: in vitro, biofilms at day 1 and day 5
Description: Shown are biofilms of treated and untreated B. subtilis biofilms.
Strains and Media All experiments were performed with B. subtilis NCBI3610 and its derivatives. Assays were carried out with the biofilm-inducing medium, MSgg: 5 mM potassium phosphate, 100 mM MOPS (pH 7), 2 mM MgCl2, 50 μM MnCl2, 1 μM ZnCl2, 2 μM thiamine, 0.5% glycerol, 0.5% glutamate, 50 μg/ml tryptophan, 50 μg/mlphenylalanine 50 μg/ml threonine, 700 μM CaCl2, and 50 μM (for growth assays) or 125 μM (for biofilm assays) FeCl3^1. A solid MSgg medium was obtained by adding Bacto agar (Difco) to a final concentration of 1.5%. When necessary, selective medium was prepared with LB-agar or LB broth, supplemented with: 100 μg/ml ampicillin (amp) (AG Scientific), or 10 μg/ml kanamycin (kan) (AG Scientific), or 10 μg/ml chloramphenicol (cam) (Amresco), or 10 μg/ml tetracycline (tet) (Amresco), or 100 μg/ml spectinomycin (spec) (Tivan Biotech), or 1 μg/mlerythromycin (erm) (Amresco)+25 μg/ml lincomycin (linc) (Sigma Aldrich).

[3] = system: B. subtilis 3610 biofilms; assay: Biofilm maintenance (% coverage) on tomato roots in planta; format: in vivo; details: 1000 B. subtilis cells with or without materials, tomato plants on agrophonic beads
Description: (FIGS. 17A-17C) B. subtilis 3610 constantly expressing the fluorescent protein mKate2 was maintained on LB plates. 1000 cells either applied or non-applied with the materials indicated were added to tomato plants grown on agrophonic beads. % coverage was calculated based on quantifying 20 fields from the fluorescent microscope using Image J. Three replications were maintained for each assay. SD represents the average of three independent experiments.

[4] = system: pseudomonas syringae pv. Tomato; assay: Tomato plant survival after pseudomonas syringae pv. Tomato infection (Example 9); format: in vivo, tomato plants; details: 5 μM caffeic acid or 5 μM putrescine or 2.5 μM each; putrescine read 28 days after infection
Description: Bacillus strain B. subtilis 3610 (B.S) are maintained on LB plates. 1000 cells of B.S. with or without the addition of 5 μM of caffeic acid or 5 μM of putrescine, or 2.5 μM each of caffeic acid and putrescine are added to tomato plants grown on agrophonic beads. Plants are incubated at 28±2° C. for 15 days.

SMILES: O=c1ccc2cc(O)c(O)cc2o1 [aesculetin]
- pks activation in screen of plant metabolites [1]: activatespks operon; also recorded: induced pks activation

SMILES: O=C(O)/C=C/c1ccc(O)c(O)c1 [caffeic acid]
- number of cells expressing the pks operon ([2]; 150 μM, 5 h, single cell fluorescence): induced the number of cells expressing the pks operon
- average pks expression level ([2]; 150 μM, single cell fluorescence, versus control): comparable to the control
- pks (PKS) expression ([2]; B. subtilis amyE::Ppks-gfp, liquid MSgg, 5, 50, 100 and 150 μM): activatespks operon; also recorded: significantly enhanced PKS expression
- planktonic growth of B. subtilis (B. subtilis): no impact on planktonic growth; also recorded: little or no effect on the growth of B. subtilis
- duration of increased stability of bacterial beneficial biofilms (B. subtilis biofilms; caffeic acid alone, 100 μM, laboratory conditions): up to 4 days
- effect on beneficial biofilms (stability / maintenance), single agent (B. subtilis biofilms): can promote biofilm maintenance
- protective biofilms in planta on tomato roots (% coverage) [3]: sustained protective biofilms in planta on tomato roots
- protective biofilms in planta on tomato roots (% coverage) ([3]; listed as Caffeic acid): can promote biofilm maintenance
- tomato plant survival after pseudomonas syringae pv. Tomato infection [4]: increased tomato plant survival

SMILES: O=C(/C=C/c1ccc(O)c(O)c1)O[C@@H]1C[C@](O)(C(=O)O)C[C@@H](O)[C@H]1O [chlorogenic acid]
- pks activation in screen of plant metabolites [1]: activatespks operon; also recorded: induced pks activation

SMILES: NCCCCN [putrescine]
- effect on beneficial biofilms (stability / maintenance), single agent (B. subtilis biofilms): little or no biological effect
- tomato plant survival after pseudomonas syringae pv. Tomato infection [4]: little or no biological effect on tomato plant survival
